Source: the NIST ThermoML archive (doi:10.1016/j.fluid.2008.03.004)

Experiment: xn = mol fraction of the nth substance listed
Settings: 101 kPa, Liquid; for speed of sound: Sing-around technique in a fixed-path interferometer

Cc1cccc(C)c1 [1,3-dimethylbenzene] + COC(C)(C)C
Settings	mass density, 315.65 K [kg/m3]	mass density, 318.15 K [kg/m3]	mass density, 320.65 K [kg/m3]	mass density, 323.15 K [kg/m3]	speed of sound, 315.65 K [m/s]	speed of sound, 318.15 K [m/s]	speed of sound, 320.65 K [m/s]	speed of sound, 323.15 K [m/s]
x2 = 0	844.792	842.622	840.452	838.289	–	1239.3	1229.3	1219.5
x2 = 0.047	839.381	837.193	835	832.812	–	1226.9	1216.9	1207
x2 = 0.115	831.348	829.131	826.912	824.696	–	1208.5	1198.3	1188.4
x2 = 0.212	819.775	817.518	815.256	813.002	–	1181.2	1171	1161.1
x2 = 0.304	808.673	806.375	804.075	801.776	–	1155.6	1145.3	1135.1
x2 = 0.399	796.825	794.481	792.132	789.785	–	1128.3	1118	1107.7
x2 = 0.5	784.01	781.614	779.21	776.809	1109.7	1099.1	1088.6	1078.2
x2 = 0.601	770.967	768.518	766.061	763.606	1079.5	1068.8	1058.2	1047.7
x2 = 0.651	764.3	761.816	759.325	756.839	1063.9	1053.1	1042.4	1031.9
x2 = 0.794	744.791	742.213	739.628	737.044	1020.2	1009.3	998.4	987.59
x2 = 0.898	730.402	727.749	725.085	722.414	987.66	976.53	965.42	954.46
x2 = 0.954	722.504	719.811	717.105	714.398	970.42	959.09	947.81	936.68
